Converted amounts (≈) assume the structure as drawn. Read-outs that look alike come from different tables or passages of the source. Where a SMILES comes first, the peptide text is derived from it. [ ]: non-standard residue; d: D form. The star is where a group is joined. Palmitoyl = CCCCCCCCCCCCCCCC(=O)*; Lauroyl = CCCCCCCCCCCC(=O)*; Pentanoyl = CCCCC(=O)*; AEEA = NCCOCCOCC(=O)O; Ahx = NCCCCCC(=O)O; βAla = NCCC(=O)O
Legend:
[1] = system: C. albicans (CCM 8186) biofilm; test: Biofilm eradication assay, pre-formed 24 h old biofilm (MTT); type: cell-based, Candida albicans; conditions: C. albicans pre-formed 24 h old biofilm, 24 h treatment
Procedure: In the case of yeasts, the overnight culture of C. albicans in Sabouraud dextrose broth (SB) was used for inoculum preparation. Similar to above, 5 mL of 24 h culture was centrifuged, washed with PBS and then suspended in sterile RPMI-1640 medium (with L-glutamine, without sodium bicarbonate) supplemented with 2% glucose (RPMI-1640/+G) yielding the amount of about 1 × 10^7 cells per ml. Subsequently, 200 µL of yeast suspension was transferred into each well of a microtiter plate, and it was incubated stationary for the next 24 h at 35 °C.
After that, each well of the plates containing bacterial or fungi biofilm was washed three times with PBS in order to remove all non-adherent cells. Then, peptide solutions of 200 µL ranging from 50 to 0,39 µg/mL prepared in TSB +/G in the case of experiments on S. aureus biofilm, and (RPMI-1640/+G) in the case of C. alibcans, were prepared and transferred into the microtiter plates. After the addition of the peptides, the experiments were continued for the next 24 h.
The reduction in biofilm viability was analyzed by means of MTT assay. Briefly, 20 μL of MTT solution (5 mg/mL in PBS) was added to prewashed wells with exchanged medium (180 μL of fresh medium) wells containing bacterial/yeast biofilms. Plates were then incubated in the dark for the next 3 h at 37 °C. After that time, the medium was replaced with 6 mM HCl in isopropanol and, when the reduced MTT was fully dissolved, the plates were read at 570 nm. Activity against fully developed 24 h old biofilm was described as biofilm eradication concentration (BEC50 expressed in µg/mL), which corresponded to the concentration of the compound able to reduce 50% of biofilm viability compared with the growth control.

[2] = system: K.pneumoniae ATCC 13883; type: cell-based, Klebsiella pneumoniae
Excerpt: (§1) Escherichia coli (PCM 2057 = ATCC 25922), Staphylococcus aureus (PCM 2054 = ATCC 25923), Staphylococcus epidermidis (PCM 2118 = ATCC 14990), Bacillus subtilis (PCM 2224 = ATCC 9799), Bacillus cereus (PCM 482 = ATCC 10702) and Pseudomonas aeruginosa (PCM 499 = ATCC 10145) were obtained from the Polish Collection of Microorganisms. Fungi strains Candida albicans (CCM 8186 = CNTC 49/64), Candida glabrata (CCM 8270 = ATCC 90030), Candida parapsilosis (CCM 8260 = ATCC 22019) and Candida krusei (CCM 8271 = ATCC 6258) were acquired from the Czech Collection of Microorganisms. S. aureus USA300 (wild type strain), the reference strain of Klebsiella pneumoniae (ATCC 13883) and clinical isolates of Pseudomonas aeruginosa (PA1, PA2) collected from nonrelated patients admitted to the Stefan Zeromski Specialist Municipal Hospital in Krakow (Poland) were kindly provided by the research group of the Department of Microbiology, Faculty of Biochemistry, Biophysics and Biotechnology, Jagiellonian University, Krakow, Poland.
(§2) Luria-Bertani broth (LB) and Sabouraud Dextrose broth (SB) (Biocorp, Poland) were used for cultivation of bacteria and fungi strains, respectively. The antimicrobial activity of the peptides were analyzed through determination of MIC (minimal inhibitory concentration) parameters according to Clinical and Laboratory Standards (CLSI) guidelines developed for aerobic bacteria and yeasts, respectively. Mueller-Hinton broth (MHB) was used as the working medium for all bacterial strains, while in the case of fungi, RPMI-1640 (with L-glutamine, without sodium bicarbonate) growth medium buffered with MOPS (morpholinepropanesulfonic acid) and supplemented with 2% glucose was used. Inoculum was prepared from freshly grown cultures of microorganisms at their exponential phase of growth. […] Plates were then incubated for 24 h at 37 °C in the case of bacteria and at 35 °C in the case of fungi. After that time, absorbance was read at 590 nm with a Perkin Elmer plate reader. Cultures without peptide were treated as positive control, while uninoculated media were defined as negative control. All measurements were run at least in triplicate.

[3] = system: P. aeruginosa PA1; type: cell-based, Pseudomonas aeruginosa
Excerpt: as §1, §2

[4] = system: P. aeruginosa PA2; type: cell-based, Pseudomonas aeruginosa
Excerpt: as §1, §2

[5] = system: S. aureus USA300; type: cell-based, Staphylococcus aureus
Excerpt: as §1, §2

[6] = ITC, binding to zwitterionic membrane; conditions: 25 °C; for pKITC: POPC LUVs
Procedure: The ITC experiments were performed according to the previously reported protocol in PBS (pH 7.4) at 25 °C using an AutoITC isothermal titration calorimeter (MicroCal Inc., Northampton, USA) with a 1.4491-mL sample and reference cells filled with distilled water. In each experiment, 29 injections of 10.02 µL each (2 µL for the first only) of a liposome solution at a concentration of 1.31 mM were added into a 0.05 mM and/or 0.1 mM peptide solution. An initial 2-μL injection was discarded from each dataset in order to remove the effect of titrant diffusion across the syringe tip during the equilibration process. Each injection lasted 20 s. The titrant was injected at 4 min intervals to ensure that the titration peak returned to the baseline before the next injection. To ensure a homogeneous mixing in the cell, the stirrer speed was kept constant at 300 rpm.
A complete binding of the peptide to lipid vesicles provides the possibility for determination of the total binding enthalpy (∆H) as well as a binding constant (Ka), reflecting the affinity of the lipopeptide to liposomes, stoichiometry of binding (n), that is, the number of phospholipids per peptide, by fitting the titration result data to one set of sites’ model using Origin 7 from MicroCal. Changes in entropy (∆S) and the Gibbs free energy (∆G) were calculated from Equation (1), where factor 55.5 is the molar concentration of water, R is the gas constant (1.986 cal·mol^−1·K^−1) and T is the absolute temperature:∆G = -RTln(55.5Ka) = ∆H-T∆S(1)
The liposomes for ITC experiments were made of POPC or POPG lipids. The lipids were dissolved in a chloroform:methanol (2:1; v/v) mixture, evaporated under nitrogen and desiccated under vacuum overnight to remove any residual solvents. Afterwards, the dry lipid film was resuspended in a phosphate buffer solution and shaken for 2 h at room temperature (phase transition point, Tm = −2 °C) to obtain multilamellar vesicles (MLVs). […]

[7] = P. aeruginosa PA1 clinical isolate
[8] = P. aeruginosa PA2 clinical isolate

Structure (SMILES)	BEC50 [1]	MIC100 ([2]; K.pneumoniae ATCC 13883)	MIC100 [3, 7]	MIC100 [4, 8]	MIC100 [5]	also measured
CC[C@H](C)[C@H](NC(=O)COCCOCCNC(=O)[C@H](Cc1c[nH]cn1)NC(=O)CCNC(=O)CCCCCN)C(=O)N[C@@H](CCCCN)C(=O)N[C@@H](CCCCN)C(=O)N[C@H](C(=O)N[C@@H](CC(C)C)C(=O)N[C@@H](CO)C(=O)N[C@@H](CCCCN)C(=O)N[C@H](C(=O)N[C@@H](CCCCN)C(=O)N[C@@H](CCCCN)C(=O)N[C@@H](CC(C)C)C(=O)N[C@@H](CC(C)C)C(N)=O)[C@@H](C)CC)[C@@H](C)CC [AHX-CAR-PEG-DK5] (H-[Ahx][βAla]H[AEEA]IKKILSKIKKLL-NH2)	20 µg/mL	–	–	–	–	–
CC[C@H](C)[C@H](NC(=O)CCCCCN)C(=O)N[C@@H](CCCCN)C(=O)N[C@@H](CCCCN)C(=O)N[C@H](C(=O)N[C@@H](CC(C)C)C(=O)N[C@@H](CO)C(=O)N[C@@H](CCCCN)C(=O)N[C@H](C(=O)N[C@@H](CCCCN)C(=O)N[C@@H](CCCCN)C(=O)N[C@@H](CC(C)C)C(=O)N[C@@H](CC(C)C)C(N)=O)[C@@H](C)CC)[C@@H](C)CC [AHX-DK5] (H-[Ahx]IKKILSKIKKLL-NH2)	25 µg/mL	–	–	–	–	–
CCCCC(=O)NCCC(=O)N[C@@H](Cc1c[nH]cn1)C(=O)NCCOCCOCC(=O)N[C@H](C(=O)N[C@@H](CCCCN)C(=O)N[C@@H](CCCCN)C(=O)N[C@H](C(=O)N[C@@H](CC(C)C)C(=O)N[C@@H](CO)C(=O)N[C@@H](CCCCN)C(=O)N[C@H](C(=O)N[C@@H](CCCCN)C(=O)N[C@@H](CCCCN)C(=O)N[C@@H](CC(C)C)C(=O)N[C@@H](CC(C)C)C(N)=O)[C@@H](C)CC)[C@@H](C)CC)[C@@H](C)CC [C5-CAR-PEG-DK5] ({Pentanoyl-βAla}-H[AEEA]IKKILSKIKKLL-NH2)	20 µg/mL	–	–	–	–	–
CCCCCCCCCCCC(=O)NCCC(=O)N[C@@H](Cc1c[nH]cn1)C(=O)NCCOCCOCC(=O)N[C@H](C(=O)N[C@@H](CCCCN)C(=O)N[C@@H](CCCCN)C(=O)N[C@H](C(=O)N[C@@H](CC(C)C)C(=O)N[C@@H](CO)C(=O)N[C@@H](CCCCN)C(=O)N[C@H](C(=O)N[C@@H](CCCCN)C(=O)N[C@@H](CCCCN)C(=O)N[C@@H](CC(C)C)C(=O)N[C@@H](CC(C)C)C(N)=O)[C@@H](C)CC)[C@@H](C)CC)[C@@H](C)CC [C12-CAR-PEG-DK5] ({Lauroyl-βAla}-H[AEEA]IKKILSKIKKLL-NH2)	12.5 µg/mL	12.5 µg/mL (≈ 6.38 µM)	12.5 µg/mL (≈ 6.38 µM)	25 µg/mL (≈ 12.8 µM)	12.5 µg/mL (≈ 6.38 µM)	pKITC [6]: 5.38 ± 0.14
CCCCCCCCCCCCCCCC(=O)NCCC(=O)N[C@@H](Cc1c[nH]cn1)C(=O)NCCOCCOCC(=O)N[C@H](C(=O)N[C@@H](CCCCN)C(=O)N[C@@H](CCCCN)C(=O)N[C@H](C(=O)N[C@@H](CC(C)C)C(=O)N[C@@H](CO)C(=O)N[C@@H](CCCCN)C(=O)N[C@H](C(=O)N[C@@H](CCCCN)C(=O)N[C@@H](CCCCN)C(=O)N[C@@H](CC(C)C)C(=O)N[C@@H](CC(C)C)C(N)=O)[C@@H](C)CC)[C@@H](C)CC)[C@@H](C)CC [C16-CAR-PEG-DK5] ({Palmitoyl-βAla}-H[AEEA]IKKILSKIKKLL-NH2)	15 µg/mL	–	–	–	–	–
CC[C@H](C)[C@H](NC(=O)COCCOCCNC(=O)[C@H](Cc1c[nH]cn1)NC(=O)CCN)C(=O)N[C@@H](CCCCN)C(=O)N[C@@H](CCCCN)C(=O)N[C@H](C(=O)N[C@@H](CC(C)C)C(=O)N[C@@H](CO)C(=O)N[C@@H](CCCCN)C(=O)N[C@H](C(=O)N[C@@H](CCCCN)C(=O)N[C@@H](CCCCN)C(=O)N[C@@H](CC(C)C)C(=O)N[C@@H](CC(C)C)C(N)=O)[C@@H](C)CC)[C@@H](C)CC [CAR-PEG-DK5] (H-[βAla]H[AEEA]IKKILSKIKKLL-NH2; N-terminus and C-terminus assumed)	>50 µg/mL	–	–	–	>200 µg/mL	MIC100 ([2]; ATCC 13883, 24 h): >200 µg/mL; MIC100 ([3]; PA1, 24 h): 100 µg/mL (≈ 56.3 µM); MIC100 ([4]; PA2, 24 h): 100 µg/mL (≈ 56.3 µM)
CCCCC(=O)N[C@H](C(=O)N[C@@H](CCCCN)C(=O)N[C@@H](CCCCN)C(=O)N[C@H](C(=O)N[C@@H](CC(C)C)C(=O)N[C@@H](CO)C(=O)N[C@@H](CCCCN)C(=O)N[C@H](C(=O)N[C@@H](CCCCN)C(=O)N[C@@H](CCCCN)C(=O)N[C@@H](CC(C)C)C(=O)N[C@@H](CC(C)C)C(N)=O)[C@@H](C)CC)[C@@H](C)CC)[C@@H](C)CC [Compound C5-DK5] (Pentanoyl-IKKILSKIKKLL-NH2)	12.5 µg/mL	50 µg/mL (≈ 33.2 µM)	25 µg/mL (≈ 16.6 µM)	25 µg/mL (≈ 16.6 µM)	25 µg/mL (≈ 16.6 µM)	binding constants (order of) ([6]; POPC vesicles): either a lack of interactions or that the binding was too weak to be detectable by ITC
CCCCCCCCCCCC(=O)N[C@H](C(=O)N[C@@H](CCCCN)C(=O)N[C@@H](CCCCN)C(=O)N[C@H](C(=O)N[C@@H](CC(C)C)C(=O)N[C@@H](CO)C(=O)N[C@@H](CCCCN)C(=O)N[C@H](C(=O)N[C@@H](CCCCN)C(=O)N[C@@H](CCCCN)C(=O)N[C@@H](CC(C)C)C(=O)N[C@@H](CC(C)C)C(N)=O)[C@@H](C)CC)[C@@H](C)CC)[C@@H](C)CC [Compound C12-DK5] (Lauroyl-IKKILSKIKKLL-NH2)	–	25 µg/mL (≈ 15.6 µM)	50 µg/mL (≈ 31.1 µM)	50 µg/mL (≈ 31.1 µM)	25 µg/mL (≈ 15.6 µM)	pKITC [6]: 4.40 ± 0.19
CCCCCCCCCCCCCCCC(=O)N[C@H](C(=O)N[C@@H](CCCCN)C(=O)N[C@@H](CCCCN)C(=O)N[C@H](C(=O)N[C@@H](CC(C)C)C(=O)N[C@@H](CO)C(=O)N[C@@H](CCCCN)C(=O)N[C@H](C(=O)N[C@@H](CCCCN)C(=O)N[C@@H](CCCCN)C(=O)N[C@@H](CC(C)C)C(=O)N[C@@H](CC(C)C)C(N)=O)[C@@H](C)CC)[C@@H](C)CC)[C@@H](C)CC [Compound C16-DK5] (Palmitoyl-IKKILSKIKKLL-NH2)	12.5 µg/mL	–	–	–	–	–
